What was measured:
Details in all cases: 72 h
Caco-2 [1] = assay: cell viability relative to DMSO; higher = less toxic
HepG2 [2] = assay: as above
U2OS [3] = assay: as above
Vero E6 [4] = assay: as above
Caco-2 [5] = assay: relative viability EC50 (midpoint between 100% and the lowest measured viability); higher = less toxic
HepG2 [6] = assay: as above
U2OS [7] = assay: as above
Vero E6 [8] = assay: as above
Caco-2 [9] = assay: drug sensitivity score (DSS) for viability; higher = more toxic; extreme values may be limits of the assay
HepG2 [10] = assay: as above
U2OS [11] = assay: as above
Vero E6 [12] = assay: as above
Calu-3 [13] = assay: cell viability relative to DMSO; higher = less toxic
Calu-3 [14] = assay: relative viability EC50 (midpoint between 100% and the lowest measured viability); higher = less toxic
Calu-3 [15] = assay: drug sensitivity score (DSS) for viability; higher = more toxic; extreme values may be limits of the assay

Row | SMILES | cell viability (Caco-2 [1]; 1 nM) | cell viability (Caco-2 [1]; 10 nM) | cell viability (Caco-2 [1]; 100 nM) | cell viability (Caco-2 [1]; 1000 nM) | cell viability (Caco-2 [1]; 10000 nM) | cell viability (HepG2 [2]; 1 nM) | cell viability (HepG2 [2]; 10 nM) | cell viability (HepG2 [2]; 100 nM) | cell viability (HepG2 [2]; 1000 nM) | cell viability (HepG2 [2]; 10000 nM) | cell viability (U2OS [3]; 1 nM) | cell viability (U2OS [3]; 10 nM) | cell viability (U2OS [3]; 100 nM) | cell viability (U2OS [3]; 1000 nM) | cell viability (U2OS [3]; 10000 nM) | cell viability (Vero E6 [4]; 1 nM) | cell viability (Vero E6 [4]; 10 nM) | cell viability (Vero E6 [4]; 100 nM) | cell viability (Vero E6 [4]; 1000 nM) | cell viability (Vero E6 [4]; 10000 nM) | relative viability EC50 (Caco-2 [5]) | relative viability EC50 (HepG2 [6]) | relative viability EC50 (U2OS [7]) | relative viability EC50 (Vero E6 [8]) | drug sensitivity score (Caco-2 [9]) | drug sensitivity score (HepG2 [10]) | drug sensitivity score (U2OS [11]) | drug sensitivity score (Vero E6 [12]) | cell viability (Calu-3 [13]; 1 nM) | cell viability (Calu-3 [13]; 10 nM) | cell viability (Calu-3 [13]; 100 nM) | cell viability (Calu-3 [13]; 1000 nM) | cell viability (Calu-3 [13]; 10000 nM) | relative viability EC50 (Calu-3 [14]) | drug sensitivity score (Calu-3 [15])
1 | Cc1ccc(C)c([C@H](O)CNC(C)C)c1 [benzenemethanol,-2,5-dimethyl-[[(1-methylethyl)amino]methyl]] | 102% | 96.3% | 92.6% | 93.7% | 96.3% | 111% | 92.6% | 101% | 100% | 104% | 101% | 99.4% | 102% | 99.2% | 102% | 103% | 107% | 98.4% | 103% | 101% | > 10 µM | > 10 µM | > 10 µM | > 10 µM | 0 | 0 | 0 | 0 | – | – | – | – | – | – | –
2 | O=C(O)CN1C(=O)c2cccc3cccc(c23)C1=O [alrestatin] | 99% | 95.2% | 101% | 96.7% | 107% | 95.4% | 102% | 90.7% | 98% | 101% | 98.9% | 96.6% | 96.1% | 102% | 105% | 94.8% | 102% | 105% | 96.6% | 101% | > 10 µM | > 10 µM | > 10 µM | > 10 µM | 0 | 0 | 0 | 0 | – | – | – | – | – | – | –
3 | CC(C)/N=c1\cc2n(-c3ccc(Cl)cc3)c3ccccc3nc-2cc1Nc1ccc(Cl)cc1 [clofazimine] | 106% | 101% | 98.3% | 84.5% | 60.4% | 94.1% | 105% | 89.8% | 97% | 68.3% | 98% | 100% | 101% | 98.1% | 91.6% | 101% | 99.6% | 103% | 104% | 91.3% | – | – | > 10 µM | > 10 µM | 3.8 | 1.9 | 0 | 0 | 101% | 97.6% | 91.3% | 98.1% | 94.4% | > 10 µM | 0
4 | CCc1nc(-c2cccc(C)c2)c(-c2ccnc(NC(=O)c3ccccc3)c2)s1 [TAK-715] | 97.5% | 102% | 92% | 78.1% | 65.6% | 93% | 94.6% | 94.6% | 94.6% | 73.5% | 100% | 103% | 98.3% | 93.6% | 85.5% | 93.5% | 102% | 94.8% | 90.6% | 82.2% | – | – | > 10 µM | > 10 µM | 4.3 | 1.8 | 0.4 | 0.8 | 90.5% | 101% | 91.8% | 93.7% | 78.2% | > 10 µM | 1

From the supplement of paper PMC13380429
